Results published in patent US12667557B2, “Method for treating EGFR-TKI-resistant non-small cell lung cancer by administration of anti-HER3 antibody-drug conjugate” (priority 2017, dated 2026).

Tests used:
[1] = molecular target: T1, topoisomerase I (Homo sapiens, UniProt P11387); settings: Ogitani Y. et al., Clinical Cancer Research, 2016; 22(20):5097-5108; cited from earlier work
T1 sequence (P11387 1-765): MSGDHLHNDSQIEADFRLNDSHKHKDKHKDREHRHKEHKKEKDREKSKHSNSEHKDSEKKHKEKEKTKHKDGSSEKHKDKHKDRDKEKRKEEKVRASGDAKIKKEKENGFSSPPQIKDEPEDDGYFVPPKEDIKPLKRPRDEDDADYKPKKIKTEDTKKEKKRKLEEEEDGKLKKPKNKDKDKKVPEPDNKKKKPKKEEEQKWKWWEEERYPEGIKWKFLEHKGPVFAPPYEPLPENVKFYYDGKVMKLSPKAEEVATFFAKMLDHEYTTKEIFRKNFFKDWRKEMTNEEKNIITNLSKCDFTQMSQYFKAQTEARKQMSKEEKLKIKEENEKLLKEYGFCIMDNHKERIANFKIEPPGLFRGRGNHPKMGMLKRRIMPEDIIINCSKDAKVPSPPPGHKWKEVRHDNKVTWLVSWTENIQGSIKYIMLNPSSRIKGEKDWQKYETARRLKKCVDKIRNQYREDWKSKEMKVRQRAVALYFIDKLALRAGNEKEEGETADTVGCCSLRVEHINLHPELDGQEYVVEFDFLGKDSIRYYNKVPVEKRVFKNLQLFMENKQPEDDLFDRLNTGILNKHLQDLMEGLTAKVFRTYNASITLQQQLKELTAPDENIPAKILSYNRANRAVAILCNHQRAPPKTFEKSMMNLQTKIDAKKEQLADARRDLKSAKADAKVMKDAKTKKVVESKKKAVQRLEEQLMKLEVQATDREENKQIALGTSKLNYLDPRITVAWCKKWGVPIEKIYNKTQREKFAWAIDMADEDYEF

[2] = system: cell strain HCC827GR5; settings: reported in K. Yonesaka et al., Oncogene (2016) 35, 878-886; cited from earlier work
[3] = system: cell strain HCC827GR5; assay: Cell proliferation suppressing activity (CellTiter Glo) against cell strain HCC827GR5; format: cell-based, human; settings: 7th day of treatment
Protocol: Cell strain HCC827GR5 was cultured in a medium obtained by adding gefitinib at a final concentration of 1 μM into the aforementioned medium.
Cell strain HCC827GR5 was cultured in a medium obtained by adding gefitinib at a final concentration of 1 μM into RPMI1640 medium (manufactured by Sigma-Aldrich Corp.) containing R10 medium (10% fetal bovine serum and 1% penicillin-streptomycin B (manufactured by Wako Pure Chemical Industries, Ltd.)). After cell strain HCC827GR5 was cultured, the cells were detached by trypsin treatment and then collected. The number of cells in the cell suspension was measured, and the cells were suspended in RPMI1640 medium containing 10% fetal bovine serum. The suspension was adjusted to have a concentration of 100,000 cells/mL. 50 μL of each cell suspension was added to each well of SUMILON 96-well plate (manufactured by Sumitomo Bakelite Co., Ltd.) (5,000 cells/well), and culture was carried out. […] On the 7th day from the initiation of treatment, 50 μL of CellTiter Glo (manufactured by Promega Corp.) was added to each well and then the culture system was stirred for 2 minutes with a plate mixer. The plate was left to stand for 30 minutes under light-shielded conditions. An aliquot of 120 μL was taken from each well and was transferred onto a black microplate, and the luminescence values were measured with a luminometer.

[4] = system: cell strain HCC827GR5 transplanted in nude mice; assay: Antitumor effect on cell strain HCC827GR5 transplanted in nude mice; format: in vivo, nude mice (BALB/cAJcl-nu/nu); settings: for Estimated tumor volume Average value: HER3-ADC (1) 10 mg/kg i.p. once a week, erlotinib 25 mg/kg oral six times a week; for Tumor growth inhibition ratio (%): compared with the control group, HER3-ADC (1) 10 mg/kg i.p., erlotinib 25 mg/kg oral
Protocol: Cell strain HCC827GR5 was cultured in RPMI1640 medium (manufactured by Sigma-Aldrich Corp.) containing R10 medium (10% fetal bovine serum and 1% penicillin-streptomycin B (manufactured by Wako Pure Chemical Industries, Ltd.)) and erlotinib at a final concentration of 1 μM, subsequently the cells were detached by trypsin treatment and then collected. The number of cells in the cell suspension was measured, and the cells were suspended in R10 medium. The suspension was adjusted to have a concentration of 75,000,000 cells/mL. 100 μL of the cell suspension thus prepared (7,500,000 cells) was transplanted subcutaneously into the ventral region of 6-week old female nude mice (BALB/cAJcl-nu/nu), and then after 7 days from tumor transplantation, at which the average value of the estimated […] tumor volume of the transplanted tumors became […], grouping was carried out. Then, drug administration was initiated (day 0). HER3-ADC (1) was dissolved in phosphate buffer saline (PBS), and the solution was adjusted to have a concentration of 1 mg/mL. Erlotinib was dissolved in a hydroxypropylmethyl cellulose (HPMC) solution, and the solution was adjusted to have a concentration of 2.75 mg/mL. To the single-agent treatment groups of each drug, from day 0 to day 49 at the maximum, prepared HER3-ADC (1) was administered intraperitoneally once a week (7 times in total) at a dose of 200 μL/mouse (10 mg/kg), and prepared erlotinib was administered orally six times a week (19 in total) at a dose of 0.18 mL/mouse (25 mg/kg). On the other hand, to the combination treatment group, HER3-ADC (1) and erlotinib were administered from day 0 at the same dose in the same schedule as those of the single-agent treatment groups. A control group, which was not subjected to administration, was also established. For all of the groups, ten mice were used per group. After the initiation of administration, the tumor diameters (major axis and minor axis) were measured twice a week (on days 0, 3, 7, 10, 14, 17, 21, 24, 28, 31, 35, 38, 41, 45, and 49), and the estimated tumor volumes in each group were calculated according to the following formula. Subsequently, the average value of the estimated tumor volume for each group was calculated. Estimated tumor volume (Volume, mm^3)=major axis (mm)×minor axis (mm)^2÷2
Furthermore, the tumor growth inhibition ratio of each group compared with the control group was calculated according to the following formula. Tumor growth inhibition ratio (%)=100−(average value of estimated tumor volume of treatment group÷average value of estimated tumor volume of control group×100)
From the viewpoint of animal ethics, the measurement for the control and erlotinib single-agent treatment groups was terminated at the 21st day since the estimated tumor volume reached 1,200 to 1,500 mm^3. Along with this, the calculation of the tumor growth inhibition ratio (%) was made up to day 21.

[5] = system: cell strain PC9; assay: Cell proliferation suppressing activity of osimertinib against cell strain PC9; format: cell-based, human; settings: 0.01 μM or higher concentrations of osimertinib; 3rd day of treatment
Protocol: (§1) Cell strains PC9 and PC9AZDR7 were cultured in RPMI1640 medium (manufactured by Sigma-Aldrich Corp.) containing 10% fetal bovine serum and 1% penicillin-streptomycin B (manufactured by Wako Pure Chemical Industries, Ltd.). PC9AZDR7 was cultured with 100 nM osimertinib added to the medium. After cell strains PC9 and PC9AZDR7 were cultured, the cells were detached by trypsin treatment and then collected. […] Subsequently, 50 μL of each cell suspension was added into each well of SUMILON 96-well plate (manufactured by Sumitomo Bakelite Co., Ltd.) (10,000 cells/well), and culture was carried out. One day after the initiation of culture, osimertinib dilutions, each of which was prepared to have one of various concentrations, or as a negative control, RPMI-1640 medium not containing any drug was added, and culture was carried out. […] The plate was left to stand for 30 minutes under light-shielded conditions. […] The cell proliferation suppressing activity (% of control) of each drug was calculated using the following formula. % of Control=(Average luminescence value in specimen-added wells÷average luminescence value in negative control wells)×100

[6] = system: cell strain PC9AZDR7 transplanted in nude mice; assay: Antitumor effect of combination of HER3-ADC (1) and osimertinib on cell strain PC9AZDR7 transplanted in nude mice; format: in vivo, nude mice (BALB/cAJcl-nu/nu); settings: for Estimated tumor volume Average value: HER3-ADC (1) 1 mg/kg i.p. on Day 1, osimertinib 1 mg/kg oral Days 1-5, 8-12, 15-19; for Tumor growth inhibition ratio (%): compared with the control group, HER3-ADC (1) 1 mg/kg i.p., osimertinib 1 mg/kg oral
Protocol: Cell strain PC9AZDR7 was cultured in RPMI1640 medium (manufactured by Sigma-Aldrich Corp.) containing 10% fetal bovine serum and 1% penicillin-streptomycin B (manufactured by Wako Pure Chemical Industries, Ltd.) and 100 nM osimertinib. After cell strain PC9AZDR7 was cultured, the cells were detached by trypsin treatment and then collected. […] From the next day of grouping (1st day), drug administration was initiated. […] As a control group, a group not receiving any administration was established. […] After the initiation of administration, the tumor diameters (major axis and minor axis) were measured twice a week, and the estimated tumor volume in each group was calculated according to the following formula. Subsequently, the average value of the estimated tumor volume for each group was calculated. […] The tumor growth inhibition ratio of each group compared with the control group was calculated using the following formula.

[7] = system: cell strain PC9AZDR7; assay: Cell proliferation suppressing activity of osimertinib against cell strain PC9AZDR7; format: cell-based, human; settings: 1 μM or lower concentrations of osimertinib; 3rd day of treatment
Protocol: as §1

SMILES: CC[C@@]1(O)C(=O)OCc2c1cc1n(c2=O)Cc2c-1nc1cc(F)c(C)c3c1c2[C@@H](NC(=O)CO)CC3
- topoisomerase I inhibitory activity [1]: confirmed to have a topoisomerase I inhibitory activity

SMILES: C#Cc1cccc(Nc2ncnc3cc(OCCOC)c(OCCOC)cc23)c1 [Erlotinib, erlotinib]
- sensitivity to alone therapy [2]: not to exhibit strong sensitivity
- cell proliferation suppressing activity (% Control) ([3]; 1 μg/mL of erlotinib (so in the source)): 69.2%
- cell proliferation suppressing activity (% Control) ([3]; 3.3 μg/mL of erlotinib (so in the source)): 52.6%
- cell proliferation suppressing activity (% Control) ([3]; 10 μg/mL of erlotinib (so in the source)): 31.7%
- Estimated tumor volume Average value ([4]; Day 0): 124.5 mm^3
- Tumor growth inhibition ratio (%) ([4]; Day 0): 2.7%
- Estimated tumor volume Average value ([4]; Day 3): 189.7 mm^3
- Tumor growth inhibition ratio (%) ([4]; Day 3): 22.0%
- Estimated tumor volume Average value ([4]; Day 7): 347.5 mm^3
- Tumor growth inhibition ratio (%) ([4]; Day 7): 26.0%
- Estimated tumor volume Average value ([4]; Day 10): 420.0 mm^3
- Tumor growth inhibition ratio (%) ([4]; Day 10): 29.1%
- Estimated tumor volume Average value ([4]; Day 14): 747.8 mm^3
- Tumor growth inhibition ratio (%) ([4]; Day 14): 14.5%
- Estimated tumor volume Average value ([4]; Day 17): 1117.9 mm^3
- Tumor growth inhibition ratio (%) ([4]; Day 17): 20.4%
- Estimated tumor volume Average value ([4]; Day 21): 1225.5 mm^3
- Tumor growth inhibition ratio (%) ([4]; Day 21): 21.1%
- antitumor effect / efficacy (in words) ([4]; on Day 21, Dunnet's Multiple Comparison test p<0.001 for the significant effects): did not exhibit efficacy

SMILES: C=CC(=O)Nc1cc(Nc2nccc(-c3cn(C)c4ccccc34)n2)c(OC)cc1N(C)CCN(C)C [Osimertinib, osimertinib]
- cell proliferation suppressing activity [5]: Strong cell proliferation suppressing activities
- Estimated tumor volume Average value ([6]; Day 0): 64.2 mm^3
- Tumor growth inhibition ratio (%) ([6]; Day 0): 5.3%
- Estimated tumor volume Average value ([6]; Day 5): 249.3 mm^3
- Tumor growth inhibition ratio (%) ([6]; Day 5): 6.0%
- Estimated tumor volume Average value ([6]; Day 8): 271.7 mm^3
- Tumor growth inhibition ratio (%) ([6]; Day 8): 5.8%
- Estimated tumor volume Average value ([6]; Day 11): 357.2 mm^3
- Tumor growth inhibition ratio (%) ([6]; Day 11): 17.9%
- Estimated tumor volume Average value ([6]; Day 16): 533.4 mm^3
- Tumor growth inhibition ratio (%) ([6]; Day 16): 6.7%
- Estimated tumor volume Average value ([6]; Day 18): 650.7 mm^3
- Tumor growth inhibition ratio (%) ([6]; Day 18): 9.8%
- Estimated tumor volume Average value ([6]; Day 21): 710.6 mm^3
- Tumor growth inhibition ratio (%) ([6]; Day 21): 27.7%
- cell proliferation suppressing activity [7]: no cell proliferation suppressing activity was observed
